Measured values published in PMC5641919, “Structural basis for antibacterial peptide self‐immunity by the bacterial ABC transporter McjD” (The EMBO Journal, 2017).

Target: T1, McjD (Escherichia coli, UniProt Q9X2W0)
T1 construct: reconstituted in E. coli polar lipid proteoliposomes for transport; plasmid-encoded mcjABCD operon
Assay: ATP-dependent Hoechst fluorescence uptake in proteoliposomes
Type: biochemical
Conditions: 0.1 μM Hoechst, 50 mM Tris pH 8, 50 mM KCl, E. coli polar lipids

T1 sequence (Q9X2W0 whole entry): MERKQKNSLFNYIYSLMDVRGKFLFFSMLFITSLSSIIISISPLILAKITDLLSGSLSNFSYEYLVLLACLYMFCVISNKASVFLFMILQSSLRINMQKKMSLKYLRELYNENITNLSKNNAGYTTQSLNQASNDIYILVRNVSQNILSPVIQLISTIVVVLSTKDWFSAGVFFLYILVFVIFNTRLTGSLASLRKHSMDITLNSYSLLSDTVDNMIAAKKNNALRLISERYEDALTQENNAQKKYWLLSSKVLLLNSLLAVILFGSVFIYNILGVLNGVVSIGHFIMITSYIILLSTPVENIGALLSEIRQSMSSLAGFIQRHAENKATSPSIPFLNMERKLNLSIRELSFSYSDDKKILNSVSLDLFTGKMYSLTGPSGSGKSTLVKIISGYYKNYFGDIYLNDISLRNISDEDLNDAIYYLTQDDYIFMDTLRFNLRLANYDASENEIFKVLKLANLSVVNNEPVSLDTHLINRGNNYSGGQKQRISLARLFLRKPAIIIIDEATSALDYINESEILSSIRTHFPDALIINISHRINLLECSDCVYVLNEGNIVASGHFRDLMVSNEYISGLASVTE

CCOc1ccc(-c2nc3ccc(-c4nc5ccc(N6CCN(C)CC6)cc5[nH]4)cc3[nH]2)cc1 [Hoechst 33342]
ATP-dependent Hoechst fluorescence uptake in proteoliposomes: McjD mediates the ATP‐dependent uptake of Hoechst in proteoliposomes (black line)
